Test results as given in patent publication US20100197584A1, “USE OF CURCUMIN TO BLOCK BRAIN TUMOR FORMATION IN MICE” (Research Foundations of the City University of- New York, priority 2007, published 2010).

Experiments:
VEGF = assay: Western blot of B16F10 cells, VEGF; format: cell-based, mouse; settings: 50 μM
Procedure: (§1) B16F10 cells were cultured in 10-cm plates and then treated in duplicate with carrier or curcumin (50 μM). Following treatment for appropriate time periods, the cells were washed with PBS, lysed in RIPA buffer (PBS containing 1% Nonidet P40, 0.5% sodium deoxycholate, 0.1% SDS, 0.5 mM Na3VO4 plus freshly added PMSF and protease inhibitor cocktail; Boeringer-Roche), and then 20 μg of lysate protein (per lane) were analyzed by SDS-10% PAGE and Western blot analysis. Antibody concentrations used were: anti-phospho-NF-κB (1:1000) (Santa Cruz Biotechnology, Santa Cruz, Calif.), anti-phospho-Akt (1:5000) (Cell Signaling, CA), anti-cyclin D1 (1:1000) (Cell Signaling, CA), anti-BclXL (1:500) (Santa Cruz Biotechnology), anti-VEGF (1:500) (Santa Cruz Biotechnology), and anti-β-actin (1:1000) (Sigma, St. Louis, Mo.).

[1] = test system: A549 (human lung cancer) cells; assay: Cell viability assay using MTT, A549; format: cell-based; settings: 25 μM and 50 μM, 48 h or 96 h, versus control cells (FIG. 6d)
Procedure: (§2) Cells. B16F10 (mouse melanoma), GL261 (mouse glioma), HOG (human oligodendroglioma), A549 (human lung cancer), and N18 (mouse neuroblastoma) cells were cultured separately in DMEM containing 10% (v/v) fetal bovine serum and 1% (v/v) penicillin-streptomycin (PS) and allowed to grow to 40% confluence in a 96-well plate.
(§3) Curcumin Treatment. Two hours before drug treatment, the medium in each well was replaced with 200 μl Neurobasal medium supplemented with 2% (v/v) B27 and 1% (v/v) PS (Drug-treatment Medium). A stock solution (40 mM) of curcumin was prepared in sterile dimethyl sulfoxide (DMSO) (Example 1). Through serial dilution of each stock solution in Drug-treatment Medium, the following concentrations were obtained: 20 μM and 50 μM (for caspase 3/7 assays) or 25 μM and 50 μM (for MTT assays). […] Additionally, the background absorbance was determined from parallel wells containing only the Drug-treatment Medium plus a particular concentration of the drug (no cells).
(§4) Cell Viability Assay Using MTT (3-(4,5-Dimethylthiazolyl-2)-2,5-Diphenyltetrazolium Bromide). […] Absorbance was measured at 570 nm using a 96-well multi scanner auto-reader with the extraction buffer used as blank. For curcumin samples, the absorbance obtained from the corresponding curcumin plus medium samples was subtracted.

BclXL = assay: Western blot of B16F10 cells, BclXL; format: cell-based, mouse; settings: 50 μM (FIG. 9)
Procedure: as §1

[2] = cited from earlier work
[3] = test system: HOG (human oligodendroglioma) cells; assay: Cell viability assay using MTT, HOG; format: cell-based; settings: 25 μM and 50 μM, 48 h or 96 h, versus control cells (FIG. 6e)
Procedure: as §2, §3, §4

human glioma cells = human glioma cells in vitro (Karmakar 2006; Dhandapani 2007); cited from earlier work
melanoma cell lines = melanoma cell lines (Siwak et al. 2005); cited from earlier work
[4] = test system: human pancreatic carcinoma cell lines; settings: human pancreatic carcinoma cell lines (Li et al. 2004); cited from earlier work
[5] = test system: N18 (mouse neuroblastoma) cells; assay: Caspase-3/7 assay in N18 cells; format: cell-based; settings: 20 μM and 50 μM, 48 h or 96 h (FIG. 2)
Procedure: Cells. B16F10 (mouse melanoma), GL261 (mouse glioma), HOG (human oligodendroglioma), A549 (human lung cancer), and […] (mouse neuroblastoma) cells were cultured separately in DMEM containing 10% (v/v) fetal bovine serum and 1% (v/v) penicillin-streptomycin (PS) and allowed to grow to 40% confluence in a 96-well plate. Curcumin Treatment. Two hours before drug treatment, the medium in each well was replaced with 200 μl Neurobasal medium supplemented with 2% (v/v) B27 and 1% (v/v) PS (Drug-treatment Medium). A stock solution (40 mM) of curcumin was prepared in sterile dimethyl sulfoxide (DMSO) (Example 1). Through serial dilution of each stock solution in Drug-treatment Medium, the following concentrations were obtained: 20 μM and 50 μM (for caspase 3/7 assays) or 25 μM and 50 μM (for MTT assays). Drug-treatment Medium in each well was aspirated, and a drug solution of each concentration or carrier-containing medium (control) was added to triplicate wells of cells (50 μl/well). […] Additionally, the background absorbance was determined from parallel wells containing only the Drug-treatment Medium plus a particular concentration of the drug (no cells). […] Fluorescence in each well was measured using the FLx 800 plate reader (Bio-Tek Instruments, Winooski, Vt.) set at 485/20 nm excitation and 528/20 nm emission wavelengths and the sensitivity of 70. […]

breast tumor cell lines = settings: several breast tumor cell lines (Mehta et al. 1997); cited from earlier work

## COc1cc(/C=C/C(=O)CC(=O)/C=C/c2ccc(O)c(OC)c2)ccc1O [curcumin]
VEGF
  VEGF (Western blot): suppressed
[1]
  cell viability (MTT): dramatic decrease
BclXL
  BclXL (Western blot): suppression
[2]
  solubility in water: very low
[3]
  cell viability (MTT): dramatic decrease
Human glioma cells
  apoptosis: triggers apoptosis
Melanoma cell lines
  apoptosis: induces apoptosis
[4]
  apoptosis: induces apoptosis
[5]
  caspase-3/7 activity: increased
Breast tumor cell lines
  proliferation: antiproliferative effects
